Laboratory results reported in patent US20230357099A1, “PYRAZOLO [3,4-B] PYRIDINE-4-CARBOXAMIDE NITRIFICATION INHIBITOR” (EUROCHEM ANTWERPTEN, priority 2020, published 2023).

Columns and labels:
agricultural soils = experiment: In soil nitrification inhibition assay; conditions: soil; for inhibition at 50 µM: 50 µM of each compound
Method: Top layer (0 to 10 cm) soil samples were collected from different fields in Belgium (Merelbeke, Sint-Laureins and Moorslede). Vegetation was removed and samples were taken from different plots. All soil samples were mixed and sieved (mesh size 2.8 mm) to filter large debris and homogenize soil. The soil was stored at 5° C. in plastic containers covered with Saran foil to prevent changes in microbial community composition and to maintain the original soil water content.
Soil water content was determined by drying 20 g soil for ≥ 48 h in a 60° C. oven and measuring weight before and after drying. Based on the soil water content (± 20%), compound solutions were prepared so that addition of 200 µl compound and 200 µl NH4Cl solution would result in a final compound concentration of 50 µM (unless otherwise stated) and a final NH4+ concentration of 10 mM. Per treatment, 5 small pots were filled with 20 g soil. Next, the soil was treated first with the respective compound solution and then with the NH4Cl solution. Per tray, positive (50 µM DMP) and negative controls (DMSO) were included. […] Demineralized water was added to the soil every 2 to 3 days to a soil weight of 20 g. In the end, each sample of 20 g soil was dissolved in 100 ml 1 M KCI and shaken for 1 hour, followed by filtration through Whatmann® paper. The filtrate was used to measure pH, NH4+ and NO3— concentrations. The nitrification percentage was calculated as the ratio of the consumed ammonium in treated soil versus the consumed ammonium in non-treated soil; the nitrification inhibition percentage was calculated as ‘100% - the nitrification percentage’.

[1] = test system: agricultural soils (Moorslede and Sint-Laureins); experiment: Greenhouse gas measurements from fertilized soil
Method: Two agricultural soils coming from fields in Moorslede and Sint-Laureins were used. Screw top vials were filled with 10 g soil. Vials were sealed with Parafilm and preincubated at 21° C. in the dark for 5 days. After pre-incubation, vials were ventilated using a fan. Then 100 µL of a 1 mM compound solution (10 % DMSO) was added, immediately followed by the addition of 100 µL 200 mM NH4Cl. Vials were closed gastight and 5 mL synthetic air was added to the headspace using a plastic syringe, followed by the transfer of 5 mL headspace to an evacuated 3 mL exetainer. Vials were incubated at 21° C. in the dark and background NO concentration was noted. At each sampling timepoint, 5 mL synthetic air was added again to the headspace using a plastic syringe, again followed by the transfer of 5 mL headspace to an evacuated 3 mL exetainer. Vials were ventilated and closed again, and new gas samples were transferred to exetainers like before. N2O in the exetainers were measured via gas chromatography (GC-14 B (Schimadzu) equipped with Haysep Q columns (same spec) and an ECD detector, He at c.a. 20 mL min, 70° C.). The CO2 and CH4 concentration in the 3 mL exetainer vials was measured using a GC (Trace-GC, Interscience) equipped with Haysep Q columns (80-100, ⅛″ divided in 2 part 0.25 and 2.0 m connected with a 6 port valve to allow backflush of water vapor) and a FID (CH4) and TCD (CO2). Carrier gas was He c.a. 20 mL/min kept at 90° C. NO concentration was measured directly by connecting a chemiluminescence NO detector (CLD 77 AM, eco physics) directly to the headspace using a needle.

[2] = test system: ammonia oxidizing archaea; experiment: Abundance of ammonia oxidizing archaea in DMP-treated soil

Which results are given for `Cc1cn[nH]c1C` [DMP, 3,4-dimethylpyrazole]?
inhibition at 50 µM (agricultural soils; 72 h, Soil 2, 3 days): 68%; inhibition at 50 µM (agricultural soils; 72 h, Soil 3, 3 days): 52%; inhibition at 50 µM (agricultural soils; 168 h, Soil 1, 7 days): 88%; inhibition at 100 µM (agricultural soils; 168 h, Soil 1, 7 days, 100 µM): 84%; inhibition at 50 µM (agricultural soils; 168 h, Soil 2, 7 days): 14%; inhibition at 100 µM (agricultural soils; 168 h, Soil 2, 7 days, 100 µM (Table 2)): 14%; inhibition at 100 µM (agricultural soils; 168 h, Soil 2, 7 days, 100 µM of each compound, 6 inhibitors alone and combined with Example 2): 54%; inhibition at 50 µM (agricultural soils; 168 h, Soil 3, 7 days): 0%; inhibition at 100 µM (agricultural soils; 168 h, Soil 3, 7 days, 100 µM): 0%; Cumulative emission at indicated timepoint [ppb], N2O, 4 h ([1]; Moorslede soil, N2O): 0 ppb; Cumulative emission at indicated timepoint [ppb], N2O, 24 h ([1]; Moorslede soil, N2O): 0 ppb; Cumulative emission at indicated timepoint [ppb], N2O, 48 h ([1]; Moorslede soil, N2O): 0 ppb; Cumulative emission at indicated timepoint [ppb], N2O, 72 h ([1]; Moorslede soil, N2O): 0 ppb; Cumulative emission at indicated timepoint [ppb], N2O, 99 h ([1]; Moorslede soil, N2O): 0 ppb; Cumulative emission at indicated timepoint [ppb], NO, 4 h ([1]; Moorslede soil, NO): 48 ppb; Cumulative emission at indicated timepoint [ppb], NO, 24 h ([1]; Moorslede soil, NO): 49 ppb; Cumulative emission at indicated timepoint [ppb], NO, 48 h ([1]; Moorslede soil, NO): 47 ppb; Cumulative emission at indicated timepoint [ppb], NO, 72 h ([1]; Moorslede soil, NO): 64 ppb; Cumulative emission at indicated timepoint [ppb], NO, 99 h ([1]; Moorslede soil, NO): 64 ppb; Cumulative emission at indicated timepoint [ppb], N2O, 4 h ([1]; Sint-Laureins soil, N2O): 0 ppb; Cumulative emission at indicated timepoint [ppb], N2O, 24 h ([1]; Sint-Laureins soil, N2O): 0 ppb; Cumulative emission at indicated timepoint [ppb], N2O, 48 h ([1]; Sint-Laureins soil, N2O): 0 ppb; Cumulative emission at indicated timepoint [ppb], N2O, 72 h ([1]; Sint-Laureins soil, N2O): 0 ppb; Cumulative emission at indicated timepoint [ppb], N2O, 99 h ([1]; Sint-Laureins soil, N2O): 0 ppb; Cumulative emission at 215 h [ppb], N2O ([1]; Sint-Laureins soil, N2O, 215 h): 47 ppb; Cumulative emission at indicated timepoint [ppb], NO, 4 h ([1]; Sint-Laureins soil, NO): 26 ppb; Cumulative emission at indicated timepoint [ppb], NO, 24 h ([1]; Sint-Laureins soil, NO): 59 ppb; Cumulative emission at indicated timepoint [ppb], NO, 48 h ([1]; Sint-Laureins soil, NO): 98 ppb; Cumulative emission at indicated timepoint [ppb], NO, 72 h ([1]; Sint-Laureins soil, NO): 162 ppb; Cumulative emission at indicated timepoint [ppb], NO, 99 h ([1]; Sint-Laureins soil, NO): 187 ppb; Cumulative emission at 215 h [ppb], NO ([1]; Sint-Laureins soil, NO, 215 h): 243 ppb; effect on the presence (abundance) of ammonia oxidizing archaea [2]: no inhibiting effect on the presence of archaea
